Patent publication US7078401B2, “Thiophenylaminoimidazolines as IP antagonists” (Roche Palo Alto LLC, priority 2003, dated 2006)
Where a name gives a salt, the structure may show the parent alone.

Compound `COc1ccc(Sc2ccc(NC3=NCCN3)cc2)cc1` (as salt: hydrochloride) [Compound 5, (4,5-Dihydro-1H-imidazol-2-yl)-[4-(4-methoxy-phenylsulfanyl)-phenyl]-amine] has a melting point of 149 to 150 °C.
With `Clc1ccc(Sc2ccc(CNC3=NCCN3)cc2)cc1` (as salt: hydrochloride) [Compound 9, [4-(4-Chloro-phenylsulfanyl)-benzyl]-(4,5-dihydro-1H-imidazol-2-yl)-amine] the melting point was 127 to 130 °C.
With `Clc1ccc(Sc2ccc(NC3=NCCCC3)cc2)cc1` (as salt: hydrochloride) [Compound 73, [4-(4-Chloro-phenylsulfanyl)-phenyl]-(3,4,5,6-tetrahydro-pyridin-2-yl)-amine] the melting point was 148 to 152 °C.
For `COc1ccc(Sc2ccc(NC(=N)N)cc2)cc1` [Example 2, N-[4-(4-Methoxy-phenylsulfanyl)-phenyl]-guanidine], the melting point was 140 to 141 °C.
